Measurements as given in patent US20140051706A1 (PRISM PHARMA CO., LTD., priority 2011, published 2014).

assay: Plasma stability test; assay type: in vitro ADME; conditions: human fresh plasma; read-out: ½t (plasma half-life)
Procedure: In the tables mentioned below, data indicated by “½t” means data of plasma half-life (minutes) is determined by plasma stability test that mentioned below.
Determination of Plasma half life was carried out according to the following procedure using the fresh plasma.
1. 0.025 mg/mL spiking solution A: add 10 μL of 0.5 mg/mL stock solution to 190 μL of DMSO. 2. Add 90 μL of plasma into the wells designated for all the time points (0, 5, 10, 30, 60, 90, 120, 240 min). 3. Add 10 μL of pre-warmed spiking solution A into the wells designated for all the time points (0, 5, 10, 30, 60, 90, 120, 240 min). Immediately, add 400 μL of ACN containing IS into the wells designated for 0 min, then start timing. 4. At 5, 10, 30, 60, 90, 120, 240 min, add 400 μL of ACN containing IS into the wells, respectively. 5. Protein is precipitated by centrifugation (4000 rpm, 15 min). 6. Transfer 50 μL of supernatant into 50 μL of ultra-pure water (Millipore) in a 96-well sample plate for LC-MS/MS analysis.

half-life at 2.5 µg/mL [h]	Compound
0.733	CC(=O)Oc1ccc(C[C@H]2C(=O)N(Cc3cccc4cccnc34)[C@@H](C)C3N2C(=O)CN(C)N3C(=O)NCc2ccccc2)cc1 (stereo partly drawn) [Example I-1, 4-(((6S,9S)-1-(benzylcarbamoyl)-2,9-dimethyl-4,7-dioxo-8-(quinolin-8-ylmethyl)octahydro-1H-pyrazino[2,1-c][1,2,4]triazin-6-yl)methyl)phenyl acetate]
2.75	CCCCC(=O)Oc1ccc(C[C@H]2C(=O)N(Cc3cccc4cccnc34)[C@@H](C)C3N2C(=O)CN(C)N3C(=O)NCc2ccccc2)cc1 (stereo partly drawn) [Example I-2, 4-(((6S,9S)-1-(benzylcarbamoyl)-2,9-dimethyl-4,7-dioxo-8-(quinolin-8-ylmethyl)octahydro-1H-pyrazino[2,1-c][1,2,4]triazin-6-yl)methyl)phenyl pentanoate]
2.77	CCCCCCCCC(=O)Oc1ccc(C[C@H]2C(=O)N(Cc3cccc4cccnc34)[C@@H](C)C3N2C(=O)CN(C)N3C(=O)NCc2ccccc2)cc1 (stereo partly drawn) [Example I-3, 4-(((6S,9S)-1-(benzylcarbamoyl)-2,9-dimethyl-4,7-dioxo-8-(quinolin-8-ylmethyl)octahydro-1H-pyrazino[2,1-c][1,2,4]triazin-6-yl)methyl)phenyl nonanoate]
